Measured values from EP4310093A1, “AMINO ACID DERIVATIVE, PREPARATION METHOD THEREFOR, AND PHARMACEUTICAL COMPOSITION FOR TREATING HEPATITIS, COMPRISING SAME” (priority 2021, dated 2022).

Molecular target: T1, NTCP (Homo sapiens, UniProt Q14973)
T1 construct: expressed in transfected cells; host or cells: HepG2-hNTCP-C4
T1 sequence (Q14973 1-349): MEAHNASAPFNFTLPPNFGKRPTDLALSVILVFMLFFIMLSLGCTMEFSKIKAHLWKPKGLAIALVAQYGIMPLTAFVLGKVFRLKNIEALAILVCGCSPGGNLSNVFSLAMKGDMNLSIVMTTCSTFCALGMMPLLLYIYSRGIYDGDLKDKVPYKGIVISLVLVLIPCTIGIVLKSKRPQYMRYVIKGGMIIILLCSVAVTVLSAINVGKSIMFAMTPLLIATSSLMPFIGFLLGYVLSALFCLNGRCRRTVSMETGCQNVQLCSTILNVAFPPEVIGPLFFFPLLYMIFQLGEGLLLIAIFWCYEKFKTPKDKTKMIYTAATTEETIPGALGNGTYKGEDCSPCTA
Experiment: Inhibition of the binding between PreS1 (FITC-labelled) and NTCP expressing cell lines, flow cytometry
Conditions: for activity at 50 µM: 2 h, read-out: relative fluorescence intensity compared to the HBV-induced group (HBV PreS1) solely treated with PreS1, 50 µM compound, 20 nM PreS1, HepG2-hNTCP-C4 cell line, 4°C, 2 hours, the lower the value, the more inhibited the binding
Method: HepG2-hNTCP-C4 cell line, a cell line expressing NTCP, was seeded in a 6 well plate at a density of 2×10^5/well and incubated at 4°C for 30 minutes when the confluency reached 80% after overnight incubation for 2 days. Thereafter, 20 nM PreS 1 (Myr-[…]-Lys(FITC)) and the compounds in Example 1, Examples 38 to 56 or the compound in Comparative Example 1 were treated by diluting in culture media at 4°C at a concentration of 50 µM respectively, and the media was suctioned after 2 hours, followed by washing 3 times with 4°C PBS. In order to take the cells off from the plate, 500 µl of 0.5 mM EDTA PBS solution was treated, and then incubation was performed at 37°C for 15 minutes to check whether the cells fell off through an optical microscope. After taking off the cells by pipetting, the cells were collected in a 1.5 ml tube and centrifuged (4000 rpm, 4°C, 3 min). After suctioning the supernatant, the pellet was washed 3 times with 4°C PBS, and then green fluorescence was measured via flow cytometry. In this case, taurocholic acid (TCA), a compound known as a substrate of NTCP to reduce the entry of HBV or HDV, was used as a positive control group.
In the graph at the top of FIG. 1, black (1) and red (2) indicate a negative control group with no treatment and an HBV-induced group (HBV preS1) solely treated with PreS1, respectively. Blue (HBV preS1+HBV entry inhibitor) (3) is the fluorescence value for each of Examples or Comparative Examples, evaluated that the closer to the negative control group, the more inhibited the binding between PreS1 and the NTCP cell line.
The experimental method was the same as in the Experimental Example 1-1, and 20 nM PreS1 and each compound were treated at 4 concentrations (0.2 µM, 2 µM, 10 µM, 50 µM).
With an expectation that there is a structure-activity relationship among compounds composed of bile acid and amino acids, for each of bile acids in Comparative Example 1 (lithocholic acid, LCA), Comparative Example 2 (ursodeoxycholic acid, UDCA), Comparative Example 3 (cholic acid, CA), Comparative Example 4 (hyodeoxycholic acid, HDCA), Comparative Example 5 (deoxycholic acid, DCA), and Comparative Example 6 (chenodeoxycholic acid, CDCA), an evaluation experiment was conducted on an ability to inhibit the binding between PreS1 and NTCP expressing cell lines, and also for Examples 1 (LCA-Ile) and Example 44 (LCA-Val) as well as the compounds in Example 2 (UDCA-Ile), Example 3 (UDCA-Val), Example 6 (CA-Ile), Example 7 (CA-Val), Example 8 (HDCA-Ile), Example 9 (HDCA-Val), Example 10 (DCA-Ile), Example 11 (DCA-Val), Example 14 (CDCA-Ile), and Example 15 (CDCA-Val) in which bile acid parts (lithocholic acid) of Example 1 (LCA-Ile) and Example 44 (LCA-Val) were substituted with other types of bile acids in Comparative Examples 2 to 6, an evaluation experiment was conducted on an ability to inhibit the binding between PreS1 and NTCP expressing cell lines. The experimental method was the same as in the Experimental Example 1-1, and 18 compounds in the Comparative Examples 1 to 6, Examples 1 to 3, Examples 6 to 11, Examples 14 to 15, and Example 44 were treated at a concentration of 50 µM along with 20 nM PreS 1. […]
In the Experimental Examples 1-4, it was determined whether there is additionally concentration dependence for Example 4 (UDCA-Trp), a compound with good inhibitory ability. […]

Compound	effect of inhibiting the binding between PreS1 and NTCP expressing cell lines by treatment concentration (2 µM, 10 µM, 20 µM, 50 µM compound, 20 nM PreS1)	activity at 50 µM
C[C@H](CCC(=O)N[C@@H](Cc1c[nH]c2ccccc12)C(=O)O)[C@H]1CC[C@H]2[C@@H]3[C@@H](O)C[C@@H]4C[C@H](O)CC[C@]4(C)[C@H]3CC[C@]12C [Example 4, (S)-2-((R)-4-((3R,5S,7S,8R,9S,10S,13R,14S,17R)-3,7-dihydroxy-10,13-dimethyl-hexadecahydro-1H-cyclopenta[a]phenanthren-17-yl)pentanamido)-3-(1H-indol-3-yl)propanoic acid]	concentration dependent	
C[C@H](CCC(=O)N1CCCC1C(=O)O)[C@H]1CC[C@H]2[C@@H]3CC[C@@H]4C[C@H](O)CC[C@]4(C)[C@H]3CC[C@]12C (stereo partly drawn) [Example 38, 1-((R)-4-((3R,5R,8R,9S,10S,13R,14S,17R)-3-hydroxy-10,13-dimethyl-hexadecahydro-1H-cyclopenta[a]phenanthren-17-yl)pentanoyl)pyrrolidine-2-carboxylic acid]		≤ 20%
C[C@H](CCC(=O)N[C@@H](CS)C(=O)O)[C@H]1CC[C@H]2[C@@H]3CC[C@@H]4C[C@H](O)CC[C@]4(C)[C@H]3CC[C@]12C [Example 40, (R)-2-((R)-4-((3R,5R,8R,9S,10S,13R,14S,17R)-3-hydroxy-10,13-dimethyl-hexadecahydro-1H-cyclopenta[a]phenanthren-17-yl)pentanamido)-3-mercaptopropanoic acid]		≤ 20%
CC(C)C[C@H](NC(=O)CC[C@@H](C)[C@H]1CC[C@H]2[C@@H]3CC[C@@H]4C[C@H](O)CC[C@]4(C)[C@H]3CC[C@]12C)C(=O)O [Example 47]		≤ 20%
CSCC[C@H](NC(=O)CC[C@@H](C)[C@H]1CC[C@H]2[C@@H]3CC[C@@H]4C[C@H](O)CC[C@]4(C)[C@H]3CC[C@]12C)C(=O)O [Example 48, (S)-2-((R)-4-((3R,5R,8R,9S,10S,13R,14S,17R)-3-hydroxy-10,13-dimethyl-hexadecahydro-1H-cyclopenta[a]phenanthren-17-yl)pentanamido)-4-(methylthio)butanoic acid]		≤ 20%
